From ChEMBL document CHEMBL5728593, “Small molecule inhibitors of Galectin-3” (2021)

Target: Galectin-3 (Homo sapiens, UniProt P17931)
Experiment: Biological Assay: ASSAY BUFFER Composition: 25 mM HEPES, 100 mM NaCl, 0.005% Tween 20, 0.05% BSA prepared in sterile water (all reagents from Sigma). PROTOCOL: The Gal-3 assays were performed in 384 white Opti plates in three replicates at room temperature with gentle shaking at 250-300 rpm From the original stocks, […] working stock concentrations of His-tagged recombinant human Gal-3 (hGal-3) and that of B-ASF were prepared. From the working stock, 20 μl of hGal-3 (15 nM) and 20 μl B-ASF (15 nM) were added to the plates. In Negative Control, only hGal-3 was added. A concentration range of 50× working stocks were prepared for the compounds in 100% DMSO. Aliquots of 1 uL of the compounds were added to the wells and pre-incubated with 20 μl hGal-3 per well for 30 minutes Then 20 μl B-ASF were added and incubated for another 1 hour. To detect the signal, 5 μ(final conc. of 1.0 nM) terbium labelled Anti-His antibody was added and incubated for 30 min followed by adding 5 μ(final conc. of 20 nM) Streptavidin d2 and incubation for another 1 hour. The assay signal was detected using HTRF screen protocol (Excitation wavelength=340 nm, emission wavelength=615 nm/665 nm) on Envision 2104 Multilabel Reader. Data analysed using Toolset and Curve Master. Results are reported in the experimental section (IC50 in μM).

Sequence of Galectin-3 (P17931 whole entry): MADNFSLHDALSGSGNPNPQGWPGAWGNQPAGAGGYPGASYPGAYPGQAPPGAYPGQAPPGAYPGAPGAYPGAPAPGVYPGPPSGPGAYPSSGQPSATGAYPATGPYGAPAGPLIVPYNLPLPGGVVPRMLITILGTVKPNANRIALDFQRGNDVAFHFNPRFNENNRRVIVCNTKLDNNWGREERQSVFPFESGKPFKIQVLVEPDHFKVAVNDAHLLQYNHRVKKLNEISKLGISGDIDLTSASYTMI

Compound: COCCO[C@@H]1[C@@H](n2cc(-c3cc(F)c(F)c(F)c3)nn2)[C@@H](O)[C@@H](CO)O[C@@H]1Sc1ccc(Cl)c(Cl)c1
- IC50: 0.224 µM

Compound: NC(=O)CO[C@@H]1[C@@H](n2cc(-c3cc(F)c(F)c(F)c3)nn2)[C@@H](O)[C@@H](CO)O[C@@H]1Sc1ccc(Cl)c(Cl)c1
- IC50: 0.2 µM
